Laboratory results: patent US20260078103A1, “ISOQUINOLONES AS PI3K INHIBITORS” (OnKure, Inc., priority 2022, published 2026)
Read-outs that look alike come from different tables or passages of the source.

How the values were obtained:
Type in all cases: cell-based
[1] = tested on: phosphorylation of AKT (pAKT) in T47D cells expressing mutant PI3Ka (H1047R); assay: In vitro cell pAKT (Ser473) HTRF, T47D cells; settings: cellular pAKT, T47D cells, mutant PI3Ka (H1047R), 6 hours, read-out: Avg T-47D IC50
How it was run: (§1)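 pAKT (Ser473) was quantified by HTRF in lysates from cells exposed 6 h at 37 °C to 10-point compound series, with T47D in insulin-supplemented RPMI/10% FBS and SKBR3 in McCoy's 5a/10% FBS. Controls: 0.1% DMSO (high) and 10 uM alpelisib (low). IC50 from sigmoidal curve fitting.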

[2] = tested on: T47D cells expressing mutant PI3Ka (H1047R); assay: In vitro cell proliferation, T47D cells (CellTiter-Glo); settings: inhibition of proliferation, read-out: Avg T-47D EC50
How it was run: (§2)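 T47D (PI3Kα H1047R; RPMI, 10% FBS, insulin 0.2 units/mL) or SKBR3 (WT PI3Kα; McCoys 5a, 10% FBS) cells seeded at 1,500 cells/well on 10-point compound dilutions, grown 72 h at 37 °C. CellTiter-Glo luminescence; inhibition normalised to 0.1% DMSO and 10 uM alpelisib, EC50 from four-parameter fit.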

[3] = tested on: SKBR3 cells express WT PI3Ka; assay: In vitro cell proliferation, SKBR3 cells (CellTiter-Glo); settings: inhibition of proliferation
How it was run: as §2

[4] = tested on: phosphorylation of AKT (pAKT) in SKBR3 cells express WT PI3Ka; assay: In vitro cell pAKT (Ser473) HTRF, SKBR3 cells; settings: cellular pAKT
How it was run: as §1

IC50 ([1]; Homo sapiens, T47D, 6 h)	EC50 ([2]; Homo sapiens, T47D, 72 h)	EC50 ([3]; Homo sapiens, SK-BR-3, 72 h)	IC50 ([4]; Homo sapiens, SK-BR-3, 6 h)	IC50 [1]	EC50 ([2]; 72 hours)	EC50 ([3]; 72 hours)	IC50 ([4]; 6 hours)	Structure (SMILES)
1 to 500 nM	1 to 500 nM	> 15000 nM	2000 to 15000 nM					Cc1cc([C@@H](C)Nc2ccccc2C(=O)O)c2cc(N3CCN(c4ccccc4F)CC3)n(C)c(=O)c2c1 [Example 221]
2000 to 15000 nM	2000 to 15000 nM	> 15000 nM	> 15000 nM					Cc1cc([C@@H](C)Nc2ccccc2C(=O)O)c2cc(NCc3ccc(F)cc3)n(C)c(=O)c2c1 [Example 222]
1 to 500 nM	500 to 2000 nM	> 15000 nM	> 15000 nM					Cc1cc([C@@H](C)Nc2ccccc2C(=O)O)c2cc(-c3cnc(C)cc3C)n(C)c(=O)c2c1 [Example 223]
1 to 500 nM	1 to 500 nM	> 15000 nM	> 15000 nM					Cc1cc([C@@H](C)Nc2ccccc2C(=O)O)c2cc(-c3ccc(C(C)(C)F)nc3)n(C)c(=O)c2c1 [Example 225]
1 to 500 nM	1 to 500 nM	> 15000 nM	> 15000 nM					Cc1cc([C@@H](C)Nc2ccccc2C(=O)O)c2cc(-c3ccc(C(C)C)nc3)n(C)c(=O)c2c1 [Example 226]
1 to 500 nM	1 to 500 nM	> 15000 nM	> 15000 nM					Cc1cc([C@@H](C)Nc2ccccc2C(=O)O)c2cc(-c3ccc(C4CC4)nc3)n(C)c(=O)c2c1 [Example 227]
1 to 500 nM	1 to 500 nM	> 15000 nM	> 15000 nM					Cc1cc([C@@H](C)Nc2ccccc2C(=O)O)c2cc(-c3ccc(C(C)(F)F)nc3)n(C)c(=O)c2c1 [Example 230]
1 to 500 nM	1 to 500 nM	2000 to 15000 nM	2000 to 15000 nM					Cc1cc([C@@H](C)Nc2ccccc2C(=O)O)c2cc(N3CCN(c4ccn(C)n4)CC3)n(C)c(=O)c2c1 [Example 232]
1 to 500 nM	1 to 500 nM	> 15000 nM	> 15000 nM					COc1ncc(-c2cc3c([C@@H](C)Nc4ccccc4C(=O)O)cc(C)cc3c(=O)n2C)cn1 [Example 234]
500 to 2000 nM	1 to 500 nM	2000 to 15000 nM	2000 to 15000 nM					Cc1cc([C@@H](C)Nc2ccccc2C(=O)O)c2cc(N3CCN(c4cncnc4)CC3)n(C)c(=O)c2c1 [Example 235]
1 to 500 nM	1 to 500 nM	> 15000 nM	> 15000 nM					CCOc1ncc(-c2cc3c([C@@H](C)Nc4ccccc4C(=O)O)cc(C)cc3c(=O)n2C)cc1F [Example 238]
1 to 500 nM	1 to 500 nM	> 15000 nM	> 15000 nM					Cc1cc([C@@H](C)Nc2ccccc2C(=O)O)c2cc(-c3cnc(C4CC4)s3)n(C)c(=O)c2c1 [Example 239]
1 to 500 nM	1 to 500 nM	> 15000 nM	> 15000 nM					Cc1cc([C@@H](C)Nc2ccccc2C(=O)O)c2cc(-c3cnc4c(c3)CCC4(F)F)n(C)c(=O)c2c1 [Example 240]
1 to 500 nM	1 to 500 nM	> 15000 nM	> 15000 nM					Cc1cc([C@@H](C)Nc2ccccc2C(=O)O)c2cc(-c3ccncc3)n(C)c(=O)c2c1 [Example 241]
2000 to 15000 nM	2000 to 15000 nM	> 15000 nM	> 15000 nM					COc1ncc(-c2cc3c([C@@H](C)Nc4ccccc4C(=O)O)cc(C)cc3c(=O)n2C)cc1F [Example 246]
1 to 500 nM	1 to 500 nM	> 15000 nM	> 15000 nM					COCc1ncc(-c2cc3c([C@@H](C)Nc4ccccc4C(=O)O)cc(C)cc3c(=O)n2C)cc1F [Example 247]
1 to 500 nM	500 to 2000 nM	> 15000 nM	> 15000 nM					Cc1cc([C@@H](C)Nc2ccccc2C(=O)O)c2cc(-c3cnc4c(c3)CCC4F)n(C)c(=O)c2c1 (stereo partly shown) [Example 248]
1 to 500 nM	1 to 500 nM	> 15000 nM	> 15000 nM					Cc1cc([C@@H](C)Nc2ccccc2C(=O)O)c2cc(N3CCOCC3)n(C)c(=O)c2c1 [Example 249]
1 to 500 nM	1 to 500 nM	> 15000 nM	> 15000 nM					Cc1cc([C@@H](C)Nc2ccccc2C(=O)O)c2cc(-c3cnc4c(c3)CCO4)n(C)c(=O)c2c1 [Example 252]
				1 to 500 nM	1 to 500 nM	2000 to 15000 nM	2000 to 15000 nM	COc1ncccc1N1CCN(c2cc3c([C@@H](C)Nc4ccccc4C(=O)O)cc(C)cc3c(=O)n2C)CC1 [Example 256]
2000 to 15000 nM	500 to 2000 nM	> 15000 nM	> 15000 nM					Cc1cc([C@@H](C)Nc2ccccc2C(=O)O)c2cc(N3CCC(C)(O)CC3)n(C)c(=O)c2c1 [Example 260]
1 to 500 nM	1 to 500 nM	> 15000 nM	> 15000 nM					Cc1cc([C@@H](C)Nc2ccccc2C(=O)O)c2cc(-c3cnc4ccoc4c3)n(C)c(=O)c2c1 [Example 265]
1 to 500 nM	1 to 500 nM	> 15000 nM	> 15000 nM					Cc1cc([C@@H](C)Nc2ccccc2C(=O)O)c2cc(-c3cnc(C(C)(C)F)c(F)c3)n(C)c(=O)c2c1 [Example 268]
1 to 500 nM	500 to 2000 nM	> 15000 nM	> 15000 nM					Cc1cc([C@@H](C)Nc2ccccc2C(=O)O)c2cc(-c3cnc4occc4c3)n(C)c(=O)c2c1 [Example 270]

The next lines start with the compound.

Structure (SMILES)	IC50 ([1]; Homo sapiens, T47D, 6 h)	EC50 ([2]; Homo sapiens, T47D, 72 h)	EC50 ([3]; Homo sapiens, SK-BR-3, 72 h)	IC50 ([4]; Homo sapiens, SK-BR-3, 6 h)	IC50 [1]	EC50 ([2]; 72 hours)	EC50 ([3]; 72 hours)	IC50 ([4]; 6 hours)
Cc1cc([C@@H](C)Nc2ccccc2C(=O)O)c2cc(N3CCN(c4cnn(C)c4)CC3)n(C)c(=O)c2c1 [Example 220]	1 to 500 nM	1 to 500 nM	> 15000 nM	2000 to 15000 nM				
Cc1cc([C@@H](C)Nc2ccccc2C(=O)O)c2cc(N3CCN(c4cnn(C)n4)CC3)n(C)c(=O)c2c1 [Example 231]	1 to 500 nM	1 to 500 nM	2000 to 15000 nM	2000 to 15000 nM				
CNc1ccc(N2CCN(c3cc4c([C@@H](C)Nc5ccccc5C(=O)O)cc(C)cc4c(=O)n3C)CC2)cn1 [Example 233]	1 to 500 nM	1 to 500 nM	2000 to 15000 nM	2000 to 15000 nM				
Cc1cc([C@@H](C)Nc2ccccc2C(=O)O)c2cc(N3CCN(c4cncnc4C)CC3)n(C)c(=O)c2c1 [Example 236]	1 to 500 nM	1 to 500 nM	2000 to 15000 nM	2000 to 15000 nM				
Cc1cc([C@@H](C)Nc2ccccc2C(=O)O)c2cc(N3CCN(c4cnc(C)nc4)CC3)n(C)c(=O)c2c1 [Example 237]	1 to 500 nM	1 to 500 nM	2000 to 15000 nM	2000 to 15000 nM				
Cc1cc([C@@H](C)Nc2ccccc2C(=O)O)c2cc(N3CCC(C)(C#N)C3)n(C)c(=O)c2c1 (stereo partly shown) [Example 243]	1 to 500 nM	1 to 500 nM	> 15000 nM	> 15000 nM				
Cc1cc([C@@H](C)Nc2ccccc2C(=O)O)c2cc(N3CCN(CC(F)(F)C4CC4)CC3)n(C)c(=O)c2c1 [Example 244]					1 to 500 nM	1 to 500 nM	> 15000 nM	2000 to 15000 nM
Cc1cc([C@@H](C)Nc2ccccc2C(=O)O)c2cc(N3CCN(OC(C)C)CC3)n(C)c(=O)c2c1 [Example 250]	1 to 500 nM	1 to 500 nM	> 15000 nM	> 15000 nM				
Cc1cc([C@@H](C)Nc2ccccc2C(=O)O)c2cc(N3CCN(c4ncn(C)n4)CC3)n(C)c(=O)c2c1 [Example 253]	500 to 2000 nM	500 to 2000 nM	> 15000 nM	> 15000 nM				
Cc1cc([C@@H](C)Nc2ccccc2C(=O)O)c2cc(N3CCN(c4cn(C)nn4)CC3)n(C)c(=O)c2c1 [Example 254]					2000 to 15000 nM	2000 to 15000 nM	> 15000 nM	> 15000 nM
Cc1cc([C@@H](C)Nc2ccccc2C(=O)O)c2cc(N3CCN(c4nccnc4C)CC3)n(C)c(=O)c2c1 [Example 255]	1 to 500 nM	1 to 500 nM	2000 to 15000 nM	2000 to 15000 nM				
CCc1ncccc1N1CCN(c2cc3c([C@@H](C)Nc4ccccc4C(=O)O)cc(C)cc3c(=O)n2C)CC1 [Example 257]	1 to 500 nM	1 to 500 nM	2000 to 15000 nM	2000 to 15000 nM				
Cc1cc([C@@H](C)Nc2ccc(F)cc2C(=O)O)c2cc(N3CCN(CC(F)(F)F)CC3)n(C)c(=O)c2c1 [Example 259]					1 to 500 nM	1 to 500 nM	> 15000 nM	2000 to 15000 nM
Cc1cc([C@@H](C)Nc2ccccc2C(=O)O)c2cc(N3CCN(CCC(F)(F)F)CC3)n(C)c(=O)c2c1 [Example 264]					1 to 500 nM	1 to 500 nM	> 15000 nM	> 15000 nM
Cc1cc([C@@H](C)Nc2ccc(F)cc2C(=O)O)c2cc(-c3cnc(C(C)(C)F)c(F)c3)n(C)c(=O)c2c1 [Example 269]					1 to 500 nM	1 to 500 nM	2000 to 15000 nM	2000 to 15000 nM
Cc1cc([C@@H](C)Nc2ccc(F)c(F)c2C(=O)O)c2cc(N3CCN(CC(F)(F)F)CC3)n(C)c(=O)c2c1 [Example 272]					1 to 500 nM	1 to 500 nM	2000 to 15000 nM	2000 to 15000 nM
